Laboratory results from patent publication US8404434B2, “Method for determining degree of negative effect of macrophages on vertebrate” (Yamasa Corporation, priority 2006, dated 2013).

Columns and labels:
[1] = test system: Peritoneal macrophages; assay: Diacetylspermine production by cultured macrophages with the tricarboxylate carrier inhibitor BTA; assay type: cell-based, mice
Protocol: (§1) Peritoneal macrophages collected from mice injected with thioglycollate were inoculated into a 96-well microplate (1.25×10^5 cells/well), followed by culturing. In this case, cell culture was performed by use of RPMI 1640 medium containing 10% horse serum, the medium being supplemented with spermine (i.e., a raw material of diacetylpolyamine) (10 μM) and glucose (0, 1, or 2 g/L).
(§2) After completion of culturing, the levels of diacetylspermine and residual glucose contained in the medium were measured through a customary method. As is clear from FIG. 1, diacetylspermine is produced in response to depletion of glucose.
In order to examine the origin of acetyl CoA (i.e., a raw material of diacetylpolyamine), 1,2,3-benzyltricarboxylate (BTA), which is an inhibitor of a tricarboxylate carrier used for transportation of citrate from mitochondria to the cytoplasm, was added in an amount of 10 mM to a medium supplemented with no glucose, followed by measurement of diacetylspermine level.

[2] = test system: Peritoneal macrophages; assay: Diacetylspermine production by cultured macrophages with the uncoupler DNP; assay type: cell-based, mice; conditions: DNP 100 μM in medium, glucose 2 g/L, spermine 10 μM, cultured for two days; level in medium
Protocol: as §1, §2
Dinitrophenol (DNP), which is a reagent called “uncoupler” that forcibly reduces the active potential of mitochondria, is added to a medium in an amount of 100 μM, followed by culturing for two days in a manner similar to that described above. After completion of culturing, diacetylspermine level was measured. The medium was supplemented with glucose in an amount of 2 g/L.

Compound | Diacetylspermine ([1]; BTA 10 mM in medium supplemented with no glucose, level in medium) [nM] | production of diacetylspermine ([1]; BTA 10 mM, medium without glucose, result in words) | Diacetylspermine [2] [nM]
O=C(O)c1cccc(C(=O)O)c1C(=O)O [BTA, 1,2,3-benzyltricarboxylate] | 43.0 | inhibited | 
O=[N+]([O-])c1ccc(O)c([N+](=O)[O-])c1 [DNP, Dinitrophenol] |  |  | 61.8
